# Laboratory results: patent US20210220241A1, “Body Sculpting” (Sculpt B.V., priority 2014, published 2021)
# Key:
# [1] = Stability / hydrolysis in PBS at 37 degrees (Example 6); format: physicochemical; conditions: PBS at 37 degrees
# Method: Samples were analyzed using HPLC UV.
# [2] = Skin and fat penetration assay, cubes of human fat with skin (Example 8); format: in vitro ADME; conditions: 0.25 ml hydrogel applied once, 20 hrs
# Method: Cubes of human fat (5×5×5 cm) with skin attached from obese female subjects that underwent esthetic surgery was dissected at 4° C. Cubes were transferred to containers so the skin would overlay the rim of the container. 0.25 ml of hydrogels comprising 2.75 mg/ml free octopamine, 5 mg/ml octopamine decanoate or 3.98 mg/ml octopamine pentanoate were applied once and left to penetrate for 20 hrs. Cubes were subsequently frozen at −80° C.
# Upon defrosting, skin was carefully removed taking care not to contaminate the underlying fat. The fat was dissected to yield a column of 1×1 cm of fat that was directly under the site of application. The column was sliced to yield 0.5 cm thick slices covering 0-2cm fat depth under the site of application. Tissue was sonicated in 5 ml PBS (5 mM glucose), samples were spun down (13000 rpm for 30 min at 4° C.). Clear supernatant was removed with an injection needle and syringe and frozen until analysis. Analysis of octopamine was performed as described in Example 7.
# [3] = Plasma levels of octopamine in human volunteers (Example 10); format: in vivo; conditions: humans, 2.5 ml or 5 ml hydrogel
# Method: After thorough washing of hands, blood was sampled using […]. Blood (40 microliter) was sampled using a capillary that protruded the cap of the vial and spun down into 300 microliter vials containing 10 microliter of heparin 20 IE/ml. Plasma was pipetted off and transferred to 300 microliter vials and stored at -20° C. until analysis. Octopamine was analyzed as described in Example 7. […] FIG. 17b), and of octopamine pentanoate (3.98 mg/ml, 2.5 ml, once daily); FIG. 17c). Experiments are an average of one or two experiments (n=1-2).
# human subject = test: Removal of cellulite on a human subject (Example 11); format: in vivo; conditions: hydrogel 3.98 mg/ml, 5 ml once daily, area with moderate cellulite, after three days
# Method: A hydrogel comprising 3.98 mg/ml octopamine pentanoate (5 ml) was applied once daily on a human subject in an area with moderate cellulite.
# human volunteers = test: Blood pressure, heart rate and side effects in human volunteers (Example 10); conditions: humans, topical hydrogel treatment regimes
compound,measurement,setting,value
"CCCCC(=O)Oc1ccc(C(O)CN)cc1.Cl (stereo not drawn) [octopamine pentanoate, 4-(2-amino-1-hydroxyethyl)phenyl valeroate hydrochloride]",Hydrolysis in PBS compared with plasma or fat tissue,[1],much lower rate
same,Concentrations of free octopamine in fat layers (0-2 cm depth) compared with hydrogel comprising octopamine,[2],higher concentrations
same,Penetration through skin and fat tissue,[2],penetrate through both skin and fat tissue
same,Plasma levels of free octopamine upon administration of hydrogel,[3],did not result in unacceptable plasma levels
same,Cellulite,human subject,noticeably decreased
same,Side effects,human volunteers,no side effects were reported
